ChEMBL document CHEMBL1250509, “Rose Bengal analogs and vesicular glutamate transporters (VGLUTs)” (Bioorg Med Chem, 2010)

Target: T1, Vesicular acetylcholine transporter (Rattus norvegicus, UniProt Q62666)
T1 sequence (Q62666 whole entry): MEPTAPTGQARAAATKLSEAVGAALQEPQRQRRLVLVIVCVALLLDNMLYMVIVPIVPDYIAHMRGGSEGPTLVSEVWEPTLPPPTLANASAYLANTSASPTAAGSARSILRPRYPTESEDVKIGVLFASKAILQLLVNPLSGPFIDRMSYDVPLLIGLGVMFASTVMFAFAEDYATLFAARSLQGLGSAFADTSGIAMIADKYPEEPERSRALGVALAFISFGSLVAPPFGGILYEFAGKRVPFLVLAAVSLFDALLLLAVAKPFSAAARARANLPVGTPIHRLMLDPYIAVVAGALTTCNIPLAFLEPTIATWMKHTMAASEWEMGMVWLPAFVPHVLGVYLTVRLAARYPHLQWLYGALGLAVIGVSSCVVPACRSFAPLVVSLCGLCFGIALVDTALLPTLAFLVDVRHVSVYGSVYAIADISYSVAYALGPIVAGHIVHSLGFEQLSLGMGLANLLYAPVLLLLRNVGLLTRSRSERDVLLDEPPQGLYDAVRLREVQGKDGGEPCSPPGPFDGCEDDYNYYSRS
Assay: Inhibition of VACHT in rat synaptic vesicles assessed as […] 30 mins measured after 10 mins by scintillation spectrophotometer analysis; call rule not given here
Work on `O=C(O)c1c(Cl)c(Cl)c(Cl)c(Cl)c1-c1c2cc(I)c(=O)c(I)c-2oc2c(I)c(O)c(I)cc12` [ROSE BENGAL SODIUM] yielded an IC50 of 9700 nM.

Tested on: not listed separately
Assay: Inhibition of VGLUT in rat synaptic vesicles assessed as [3H]glutamate uptake pretreated for 30 mins measured after 10 mins by scintillation spectrophotometer analysis
Molecule `O=C(O)c1cc(Cl)c(Cl)cc1-c1c2cc(I)c(=O)c(I)c-2oc2c(I)c(O)c(I)cc12` has an IC50 of 41 nM. In the case of `O=C(O)c1ccccc1-c1c2ccc(=O)c(I)c-2oc2c(I)c(O)ccc12`, the IC50 is reported as 1060 nM. In the case of `O=c1c(I)cc2c(-c3cc(Cl)c(Cl)c(Cl)c3Cl)c3cc(I)c(O)c(I)c3oc-2c1I` [DESCARBOXY RB], the IC50 is reported as 68 nM. Work on `Cc1c2oc3c(C)c(O)c(I)cc3c(-c3ccccc3C(=O)O)c-2cc(I)c1=O` yielded an IC50 of 531 nM. Work on `O=C(O)c1c(Cl)ccc(Cl)c1-c1c2cc(I)c(=O)c(I)c-2oc2c(I)c(O)c(I)cc12` yielded an IC50 of 27 nM. `O=C(O)c1ccccc1-c1c2cc([N+](=O)[O-])c(=O)c(Br)c-2oc2c(Br)c(O)c([N+](=O)[O-])cc12` [EOSIN B] gave an IC50 of 2440 nM. Molecule `COC(=O)c1c(Cl)c(Cl)c(Cl)c(Cl)c1-c1c2cc(I)c(=O)c(I)c-2oc2c(I)c(O)c(I)cc12` has an IC50 of 44 nM. With `O=C(O)c1c(Cl)c(Cl)c(Cl)c(Cl)c1-c1c2cc(Br)c(=O)c(Br)c-2oc2c(Br)c(O)c(Br)cc12` the IC50 was 51 nM. `O=C(OCc1ccccc1)c1c(Cl)c(Cl)c(Cl)c(Cl)c1-c1c2cc(I)c(=O)c(I)c-2oc2c(I)c(O)c(I)cc12` showed an IC50 of 65 nM. In the case of `O=C(O)c1c(Cl)c(Cl)c(Cl)c(Cl)c1-c1c2cc(I)c(=O)c(I)c-2oc2c(I)c(O)c(I)cc12` [ROSE BENGAL SODIUM], the IC50 is reported as 19 nM. With `COC(=O)c1ccccc1-c1c2cc([N+](=O)[O-])c(=O)c(Br)c-2oc2c(Br)c(O)c([N+](=O)[O-])cc12` the IC50 was 238 nM. With `O=C(O)c1c(F)c(F)c(F)c(F)c1-c1c2cc(I)c(=O)c(I)c-2oc2c(I)c(O)c(I)cc12` the IC50 was 102 nM. In the case of `O=C(O)c1cccc([N+](=O)[O-])c1-c1c2cc(I)c(=O)c(I)c-2oc2c(I)c(O)c(I)cc12`, the IC50 is reported as 6690 nM. Molecule `O=C(O)CCc1c2cc(I)c(=O)c(I)c-2oc2c(I)c(O)c(I)cc12` has an IC50 of 2200 nM. With `O=C(O)c1ccccc1-c1c2cc(Cl)c(=O)cc-2oc2cc(O)c(Cl)cc12` the IC50 was > 64000 nM. `CCOC(=O)c1ccccc1-c1c2cc(Br)c(=O)c(Br)c-2oc2c(Br)c(O)c(Br)cc12` gave an IC50 of 65 nM. In the case of `COc1c(I)cc2c(c1I)Oc1c(cc(I)c(OC)c1I)C21OC(=O)c2c(Cl)c(Cl)c(Cl)c(Cl)c21`, the IC50 is reported as 8820 nM. `O=C(O)c1c(Br)c(Br)c(Br)c(Br)c1-c1c2cc(I)c(=O)c(I)c-2oc2c(I)c(O)c(I)cc12` showed an IC50 of 74 nM. `CCOC(=O)c1c(Cl)c(Cl)c(Cl)c(Cl)c1-c1c2cc(I)c(=O)c(I)c-2oc2c(I)c(O)c(I)cc12` showed an IC50 of 192 nM. Molecule `COC(=O)c1ccccc1-c1c2cc(Br)c(=O)c(Br)c-2oc2c(Br)c(O)c(Br)cc12` has an IC50 of 117 nM. Molecule `O=C(O)c1c(O)cccc1-c1c2cc(I)c(=O)c(I)c-2oc2c(I)c(O)c(I)cc12` has an IC50 of 7800 nM. `N#CSc1ccc(C(=O)O)c(-c2c3cc(I)c(=O)c(I)c-3oc3c(I)c(O)c(I)cc23)c1` showed an IC50 of 689 nM. In the case of `O=C(O)c1ccccc1-c1c2cc(Br)c(=O)c(Br)c-2oc2c(Br)c(O)c(Br)cc12`, the IC50 is reported as 406 nM. `O=C(O)c1ccccc1-c1c2cc(I)c(=O)c(I)c-2oc2c(I)c(O)c(I)cc12` showed an IC50 of 36 nM. For `O=c1ccc2c(-c3ccccc3S(=O)(=O)O)c3ccc(O)c(O)c3oc-2c1O` [PYROGALLOL RED], the IC50 was > 32000 nM. Work on `O=C(O)c1c(Cl)c(Cl)c(Cl)c(Cl)c1-c1c2ccc(=O)cc-2oc2cc(O)ccc12` yielded an IC50 of 15000 nM.

Target: not listed separately
Assay: Inhibition of VGLUT
With `O=C(O)c1c(Cl)c(Cl)c(Cl)c(Cl)c1-c1c2cc(I)c(=O)c(I)c-2oc2c(I)c(O)c(I)cc12` [ROSE BENGAL SODIUM] the Ki was 19 nM. In the case of `O=C(O)c1cc(C(=O)O)c2cc(-c3ccc(-c4ccccc4)cc3)cc(O)c2n1` [QUINOLEIN DICARBOXYLIC ACID], the IC50 is reported as 40000 nM. `N[C@]1(C(=O)O)CC[C@@H](C(=O)O)C1` gave an IC50 of 230000 nM.

Tested on: not listed separately
Assay: Inhibition of VGLUT in rat synaptic vesicles assessed as [3H]glutamate uptake at 2.5 uM pretreated for 30 mins measured after 10 mins by scintillation spectrophotometer analysis
For `O=C(O)c1c(Cl)c(Cl)c(Cl)c(Cl)c1-c1c2c3ccccc3c(=O)cc-2oc2cc(O)c3ccccc3c12`, the IC50 was “Not Active”. In the case of `O=C1OC2(c3ccc(O)cc3Oc3cc(O)ccc32)c2ccccc21` [FLUORESCEIN], the IC50 is reported as “Not Active”. With `O=C(O)c1c(Cl)c(Cl)c(Cl)c(Cl)c1-c1c2ccc(=O)cc-2oc2cc(O)c3ccccc3c12` the IC50 was “Not Active”.

Tested on: not listed separately
Assay: Inhibition of VMAT in rat synaptic vesicles assessed as [3H]HT uptake pretreated for 30 mins measured after 10 mins by scintillation spectrophotometer analysis
For `O=C(O)c1c(Cl)c(Cl)c(Cl)c(Cl)c1-c1c2cc(I)c(=O)c(I)c-2oc2c(I)c(O)c(I)cc12` [ROSE BENGAL SODIUM], the IC50 was 64 nM.
